GI50 and TGI data for 9 compounds are collected here from PubChem BioAssay (NCI).

SMILES strings stand for the structures. Several values for one entry are separate records, joined by “and”; a condition that tells them apart may be missing. Identical values can stand only once.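 Cultured in 96-well plates, cells were exposed to test compound for 48 hours across five concentrations. The concentration for 50% growth inhibition is given as GI50. TGI: concentration producing complete growth inhibition.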

What all share (test): growth of human tumour cells (NCI), 48 h
Test [1] relates to BT-549 breast.
The test system of test [2] is DU-145 prostate.
Test [3] relates to HS 578T breast.
The test system of test [4] is MCF7 breast.
The test system of test [5] is MDA-MB-435.
The test system of test [6] is NCI/ADR-RES ovarian.
Test [7] deals with PC-3 prostate.
The subject of test [8] is T-47D breast.

Take `O=[N+]([O-])c1cccc(-c2nc(-c3ccc(Cl)cc3Cl)cn2-c2ccccc2)c1`: the GI50 in test [1] is 0.0695 µM; in test [2], 0.574 µM; in test [3], 0.428 µM; in test [4], 0.909 µM; in test [5], 0.763 µM; in test [6], 1.56 µM. Further, the values for the GI50 in test [7] and in test [8] were 0.391 µM and 0.922 µM, respectively. Also, the TGI in test [1] is > 22.1 µM; in test [2], 1.19 µM; in test [3] it was 1.15 µM; in test [4], 4.02 µM; in test [5] it was 2.71 µM; in test [6], 15.6 µM. In addition, the TGI is 10.8 µM in test [7] and 2.9 µM in test [8].

`O=C(O)c1cc2ccccc2c2c3c(ccc12)OCO3`: the GI50 in test [1] was 119 µM; in test [2], 303 µM; in test [3], 129 µM; in test [4] it was 227 µM; in test [5], 172 µM; in test [6] it was 210 µM. The GI50 was 166 µM in test [7] and 209 µM in test [8]. Moreover, the TGI in test [1] is 390 µM; in test [2] it was > 1000 µM; in test [3], 522 µM; in test [4], 895 µM; in test [5], 519 µM; in test [6] it was 754 µM. Moreover, the TGI came out at 559 µM in test [7] and 750 µM in test [8].

On to `Cc1ccc(C(=O)NCCCOc2ccc(N3C(N)=NC(N)=NC3(C)C)cc2Cl)cc1S(=O)(=O)F`, for which the GI50 in test [1] was 43.1 µM; in test [2], > 100 µM; in test [3], > 100 µM; in test [4] it was 22.4 µM; in test [5] it was 56.7 µM; in test [6], > 100 µM. For the same compound, the figures for the GI50 in test [7] and in test [8] were 5.9 µM and > 100 µM, respectively. The TGI in test [1], in test [2], in test [3], in test [4], in test [5] and in test [6] was > 100 µM throughout. Moreover, the TGI in test [7] and in test [8] was > 100 µM throughout.

Consider `CCCCCCCCCCCCCCCCCCNCc1ccc(Cl)cc1`, for which the GI50 in test [1] was 17.3 µM; in test [2], 2.06 µM; in test [3] it was 7.97 µM; in test [4], 2.93 µM; in test [5], 3.45 µM; in test [6] it was 3.58 µM. In addition, the GI50 in test [7] is 1.94 µM; in test [8], 4.28 µM. For the same compound, the TGI in test [1] worked out at 42.2 µM; in test [2] it was 4.44 µM; in test [3] it was 30.4 µM; in test [4], 11.5 µM; in test [5], 15.6 µM; in test [6], 18.2 µM. The TGI in test [7] was found to be 3.96 µM; in test [8], 24.9 µM.

Turning to `Cc1ccc(Nc2cc(Cl)c([N+](=O)[O-])cc2[N+](=O)[O-])cc1`, the GI50 in test [1] was 3.72 µM; in test [2] it was 2.95 µM; in test [3], 7.63 µM; in test [4], 2.7 µM; in test [5], 3.07 µM; in test [6] it was 3.83 µM. Besides, the GI50 in test [7] is 3.59 µM; in test [8] it was 3.28 µM. For the same compound, the TGI is 11.8 µM in test [1]; 7.55 µM in test [2]; > 24.7 µM in test [3]; 7.68 µM in test [4]; 10.8 µM in test [5]; 24 µM in test [6]. Further, the TGI in test [7] turned out to be 14.2 µM; in test [8] it was 9.51 µM.

As for `COCCOCCOCc1n(Cc2ccc3ccccc3c2)c2ccccc2[n+]1Cc1ccc2ccccc2c1`, the GI50 is 0.366 µM in test [1]; 0.766 µM in test [2]; 1.14 µM in test [3]; 0.325 µM in test [4]; 0.282 µM in test [5]; 15.1 µM in test [6]. In addition, the GI50 was 0.344 µM in test [7] and 0.216 µM in test [8]. Moreover, the TGI was 1.53 µM in test [1]; 2.14 µM in test [2]; 2.96 µM in test [3]; 1.45 µM in test [4]; 1.23 µM in test [5]; 44.3 µM in test [6]. The TGI in test [7] is 1.59 µM; in test [8], 1.12 µM.

On to `CCOC(=O)Nc1nc2ccccc2[nH]1`, for which the GI50 in test [1] was 6.03 µM; in test [2] it was 8.58 µM and 4.18 µM; in test [3], 4.3 µM and 3.48 µM; in test [4], 3.63 µM and 3.15 µM; in test [5], 1.28 µM and 0.674 µM; in test [6], 3.55 µM and 3.47 µM. The GI50 in test [7] is 6.6 µM and 4.07 µM; in test [8] it was 5.76 µM and 4.62 µM. Moreover, the TGI in test [1] was > 100 µM; in test [2] it was > 100 µM; in test [3], > 100 µM; in test [4] it was > 100 µM; in test [5] it was 4 µM; in test [6] it was 35.3 µM and > 25.9 µM. In addition, the TGI in test [7] and in test [8] was > 100 µM throughout.

On to `Cc1cc(C(=O)Nc2n[nH]c3ccccc23)n[nH]1`, for which the GI50 in test [1], in test [2], in test [3], in test [4], in test [5] and in test [6] was > 100 µM each time. In addition, the GI50 in test [7] and in test [8] was > 100 µM each time. The TGI in test [1], in test [2], in test [3], in test [4], in test [5] and in test [6] was > 100 µM each time. In addition, the TGI in test [7] and in test [8] was > 100 µM throughout.

Consider `C=C1C(=O)OC2C1C(OC(=O)/C(C)=C/C)CC(O)(CCl)C1C(O)C=C(C)C21O` (stereo unspecified), for which the TGI was 23.4 µM in test [1]; 30.7 µM in test [2]; > 100 µM in test [3]; 16.7 µM in test [4]; > 62.1 µM in test [5]; 55.6 µM in test [6]. In addition, the TGI in test [7] was > 51.3 µM; in test [8] it was 42.2 µM.
